Test results: patent US5294627A, “Directed biosynthesis of biologically active compounds” (Merck & Co., Inc., priority 1992, dated 1994)

Biological target: T1, Squalene synthase (Rattus norvegicus, UniProt Q02769)
T1 construct: from tissue; host or cells: liver microsomes of Charles River CD rats fed 0.1% lovastatin for 4 days
T1 sequence (Q02769 1-416): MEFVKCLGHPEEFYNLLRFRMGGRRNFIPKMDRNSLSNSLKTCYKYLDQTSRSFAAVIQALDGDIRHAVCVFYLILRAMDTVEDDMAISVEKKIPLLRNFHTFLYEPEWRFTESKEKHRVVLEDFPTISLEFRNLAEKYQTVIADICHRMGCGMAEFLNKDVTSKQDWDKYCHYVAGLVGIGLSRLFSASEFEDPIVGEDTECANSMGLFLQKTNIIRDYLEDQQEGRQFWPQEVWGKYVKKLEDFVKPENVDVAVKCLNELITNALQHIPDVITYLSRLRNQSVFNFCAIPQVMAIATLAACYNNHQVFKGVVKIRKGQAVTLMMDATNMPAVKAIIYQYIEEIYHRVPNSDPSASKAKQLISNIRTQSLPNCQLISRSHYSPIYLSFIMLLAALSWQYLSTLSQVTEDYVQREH
Assay: Squalene synthase assay (rat liver microsomes, [3H]farnesyl-pyrophosphate)
Type: biochemical
Conditions: 30° C., 20 minutes
Description: The intrinsic squalene synthase inhibitory activity of representative compounds of this invention was measured by the standard in vitro protocol described below:
CHARLES RIVER CD rats (120 to 150 g) were fed a diet containing 0.1% lovastatin for 4 days. The livers from these rats were homogenized in 5 volumes (mL/g) of ice cold 50 mM HEPES (4-(2-hydroxyethyl)-1-piperazine-ethanesulfonic acid), 5 mM EDTA (ethylenediaminetetraacetic acid) pH 7.5 with a Potter-Elvehjem type tissue grinder. The homogenate was centrifuged twice at 20,000× g for 15 min. at 4° C., discarding the pellet each time. The supernatant was then centrifuged at 100,000× g for 1 hr at 4° C. The resulting microsomal pellet was resuspended in a volume of the above homogenizing buffer equal to one-fifth the volume of the original homogenate. This microsomal preparation has a protein concentration of about 7 mg/mL. The microsomal suspensions were stored in aliquots at -70° C. Squalene synthase activity in these aliquots is stable for a least several months. […]
If a squalene epoxidase inhibitor (ingredient (7) above), such as Banyu's FW-439H, is not used, the assay mix is degassed under a vacuum and flushed with N2. […] Five mL of scintillation fluid was added to the heptane solution and radioactivity was determined by liquid scintillation counting.
Percent inhibition is calculated by the formula: [formula]

Compound: CC(=O)OC(CCCC12OC(C(=O)O)C(O)(C(=O)O)C(C(=O)O)(O1)[C@H](OC(=O)CC/C=C/C(C)CCCc1ccccc1)[C@H]2O)C(C)Cc1cccs1 (stereo partly shown)
- IC50: < 0.131 µM
